Results on 1 compound are retold here after patent publication US9314458B2, “Topical use of ingenol-3-angelate or a salt thereof to treat skin cancer” (LEO Laboratories Limited, priority 2000, dated 2016).

In assay [1] the target is T1, PKCγ (Homo sapiens, UniProt P05129).
T1 construct: host or cells: HeLa cells
Briefly: EGFP-PKC translocation in HeLa cells (PKCγ). Format: cell-based. The settings on record: one hour. How it is done:
(§1) Five EGFP-PKC isoforms (Clontech) were available for this experiment, enabling the screening of the three predominant PKC families (i.e. classical, novel and atypical PKCs). The members of the various PKC families are α, β, and γ (classical), θ (novel) and ζ (atypical).
(§2) HeLa cells were plated out in a 24-well plate containing coverslips and transfected with PKC isoforms fused to EGFP, using a commercially available effectine-transfection kit (QIAGEN, Pty. Ltd.). Cells were exposed to the transfection reagents for 16-24 hr. Subsequently, transfected cells were treated for one hour with TPA (100 ng/mL), bryostatin-1 (5 pg/mL), PEP003 (2.25 μg/mL; 5 μM) or PEP005 ([…]) 1.5 μM). Following treatment, cells were fixed on coverslips and mounted on glass slides. The slides were subsequently examined visually by fluorescence microscopy, photographed, and over 150 cells were counted/treatment/PKC isoform. Counted cells were classified according to the localisation of the PKC-EGFP fluorescence as either cytoplasmic or plasma membrane using ImagePro™ 4.1 (FIG. 5). […] The number of these cells was also counted. Results are presented as an average and standard deviation of percentages of cells (Table 1).

For assay [2], the system named is rat brain PKC. The assay is described as follows: PKC kinase activity, PepTag non-radioactive protein kinase assay. It is filed as biochemical. The note with it: PepTag gel; various dilutions of TPA; ether extract final dilution 1 in 5; crude sap and aqueous layer diluted 1/25.
Protocol: The kinase activity of rat brain PKC (Promega) was determined using the Peptag™ Non-Radioactive Protein Kinase Kit (Promega). Using agarose gel electrophoresis the technique visualises the opposing electrostatic charge of a fluorescently labeled peptide ([sequence]) compared to the phosphorylated version of the same peptide.
The reaction mixture was separated by gel electrophoresis, showing migration of the unreacted substrate (a) to the anode (top), and the product (b), which is more negatively charged because of phosphorylation by PKC, moving towards the cathode (bottom).
Assay [3] has as its system Human peripheral blood mononuclear cells. The assay is described as follows: Phagocytic activity, nitroblue tetrazolium uptake. It is filed as cell-based. The note with it: 100 ng/mL, 20 min; controls <2%. As for the experimental part: Human peripheral blood mononuclear cells (PBMC) prepared by standard Ficoll separation comprise approximately 5% monocytes. PBMC were incubated with dihydroethidium, a reduced form of the dye which becomes fluorescent when oxidized by a respiratory burst, then treated in 10% FCS-RPMI 1640 at 37° C. for 15 min with crude E. peplus extract diluted 1/1000 or 100 ng/mL TPA and analyzed by flow cytometry using conventional methods (Handbook of Flow Cytometry Methods, p. 151). The mean channel numbers for fluorescence were 618 (controls) and 818 (E. peplus extract diluted 1/1000). […] Phagocytic activity was determined by a conventional method (Hudson and Hay, Practical Immunology, 3rd edition, p. 74). […] The average of three fields gave figures of <2% (controls), 10% (TPA) and 8.7% (E. peplus sap) cells stained blue.

For assay [4], the target named is T2, PKCθ (Homo sapiens, UniProt Q04759).
T2 construct: host or cells: HeLa cells
T2 sequence (Q04759 whole entry): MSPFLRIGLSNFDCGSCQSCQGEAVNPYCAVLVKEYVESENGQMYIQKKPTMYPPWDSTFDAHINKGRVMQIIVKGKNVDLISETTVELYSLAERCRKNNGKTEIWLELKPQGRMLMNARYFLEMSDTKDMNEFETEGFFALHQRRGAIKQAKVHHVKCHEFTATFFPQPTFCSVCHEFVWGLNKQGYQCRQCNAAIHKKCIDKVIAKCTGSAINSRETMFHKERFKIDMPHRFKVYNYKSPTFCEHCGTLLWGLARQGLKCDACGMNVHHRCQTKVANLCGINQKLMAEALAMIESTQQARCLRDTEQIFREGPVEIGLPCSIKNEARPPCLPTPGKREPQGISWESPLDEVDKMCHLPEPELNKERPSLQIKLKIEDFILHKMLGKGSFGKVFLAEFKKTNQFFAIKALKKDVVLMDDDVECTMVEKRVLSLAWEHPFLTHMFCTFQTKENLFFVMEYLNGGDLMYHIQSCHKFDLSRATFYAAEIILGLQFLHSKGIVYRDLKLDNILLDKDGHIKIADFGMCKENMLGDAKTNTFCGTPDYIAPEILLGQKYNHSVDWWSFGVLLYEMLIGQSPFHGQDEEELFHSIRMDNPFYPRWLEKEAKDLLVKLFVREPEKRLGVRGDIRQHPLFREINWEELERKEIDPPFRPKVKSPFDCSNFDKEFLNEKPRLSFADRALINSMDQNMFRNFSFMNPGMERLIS
The assay is described as follows: EGFP-PKC translocation in HeLa cells (PKCθ). Format: cell-based. The note with it: one hour, same concentrations. As for the experimental part:
as §1, §2

Assay [5] has as its system HIV-1 LAI strain in U1 cells. Briefly: Activation of latent HIV from U1 cells (p24 ELISA). Format: cell-based. The note with it: 20 hr culture. The text has this:
A latently HIV-1 infected cell line (U1), derived from the promonocytic cell line U937 after infection with HIV-1 LAI strain, was used in these experiments. In the absence of activation, no or little virus (measured as p24 production) is produced by the U1 cell line. Phorbol esters are known to activate virus production from these cells (Tobiume et al., 1998) and so TPA/PMA was used as a positive control in these experiments.
Supernatants were collected and viral replication monitored by determination of the amounts of HIV p24 gag protein in the culture supernatants by ELISA, using a NEN Life Science HIV-1 p24 ELISA kit. p24 values were calculated from OD values using a standard curve.
(In an ELISA, binding on a coated surface is turned into a signal by an enzyme label.)

Assay [6] concerns peripheral blood mononuclear cells. The assay is described as follows: Phagocytosis with fluorescent beads. The note with it: 30 min, whole heparinized blood. It is filed as cell-based. How it is done:
Phagocytosis by peripheral blood mononuclear cells (PBMCs) was assayed (Steinkamp et al., 1982) using 1 μm Fluoresbrite™ yellow-green fluorescent latex spheres (Polysciences, Inc., Warrington, Pa.). A sample of whole, heparinized blood was treated with drug and 5×10E7 fluorescent latex beads in 10 μL of PBS added per mL of suspension. Cells were incubated and maintained in suspension for 30 min by means of a shaker platform at 37° C. The stimulated and non-stimulated samples were then lysed to isolate PBMCs. The PBMCs were run on the flow cytometer measuring FITC (excitation at 488 nm, emission at 525±20 nm), gated for fluorescence (phagocytosed spheres) and light scatter (cell size).

The target in assay [7] is T3, PKCζ (Homo sapiens, UniProt Q05513).
T3 construct: host or cells: HeLa cells
T3 sequence (Q05513 1-592): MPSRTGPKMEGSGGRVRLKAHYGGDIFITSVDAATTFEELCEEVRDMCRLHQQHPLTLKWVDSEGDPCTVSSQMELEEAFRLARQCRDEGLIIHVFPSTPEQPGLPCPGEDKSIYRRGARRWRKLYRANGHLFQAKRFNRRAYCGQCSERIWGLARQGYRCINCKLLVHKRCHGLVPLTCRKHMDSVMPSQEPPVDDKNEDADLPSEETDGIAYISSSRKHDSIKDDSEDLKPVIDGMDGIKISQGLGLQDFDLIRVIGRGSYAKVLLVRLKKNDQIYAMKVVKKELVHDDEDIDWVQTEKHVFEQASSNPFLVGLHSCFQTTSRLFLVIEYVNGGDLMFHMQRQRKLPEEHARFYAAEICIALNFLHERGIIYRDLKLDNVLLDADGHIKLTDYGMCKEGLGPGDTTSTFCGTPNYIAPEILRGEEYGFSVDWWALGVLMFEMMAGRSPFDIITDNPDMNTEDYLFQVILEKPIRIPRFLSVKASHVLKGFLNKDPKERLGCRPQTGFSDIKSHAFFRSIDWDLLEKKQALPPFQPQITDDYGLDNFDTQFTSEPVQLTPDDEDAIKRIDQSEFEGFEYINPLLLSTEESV
The assay is described as follows: EGFP-PKC translocation in HeLa cells (PKCζ). The settings on record: one hour, same concentrations. It is filed as cell-based. As for the experimental part: as §1, §2

In assay [8] the target is T4, PKCα (Homo sapiens, UniProt P17252).
T4 construct: host or cells: HeLa cells
Format: cell-based. The settings on record: HeLa, one hour. How it is done: as §1
as §2, with “counted.” for “counted. Results are presented as an average and standard deviation of percentages of cells (Table 1).”

For the compound `CCCCCCCCCCCCCC(=O)O[C@@H]1[C@@H](C)[C@@]2(O)[C@@H](C=C(CO)C[C@]3(O)C(=O)C(C)=C[C@@H]23)C2C(C)(C)[C@@]21OC(C)=O` (single isomer, unassigned) [TPA], the “number of PKCγ transfected cells displaying Golgi-like fluorescence” value in assay [1] was “increase in the number of cells displaying Golgi-like fluorescence”. The “translocation of PKCγ from cytoplasm to plasma membrane” value in assay [1] (TPA 100 ng/mL, bryostatin-1 5 pg/mL, PEP003 2.25 μg/mL (5 μM), PEP005 670 μg/mL (1.5 μM)) is reported as “translocated from the cytoplasm to the plasma membrane”. Moreover, the “activation of PKC (FIG. 1)” value in assay [2] is reported as “showed activation of PKC”. Besides, in assay [3], the “cells stained blue (NBT)” value was found to be 10%. In assay [4], the “translocation of PKCθ” value is reported as “translocated”. Also, the “activation of HIV from U1 cells (p24 production)” value in assay [5] is recorded as “activated HIV from U1 cells”. Besides, the “phagocytosis of fluorescent latex spheres in PBMCs” value in assay [6] is reported as “stimulate phagocytosis”. In addition, the “translocation of PKCζ” value in assay [7] was “fail to induce translocation”. Moreover, in assay [8], the “number of PKCα transfected cells displaying Golgi-like fluorescence” value is reported as “increase in the number of cells displaying Golgi-like fluorescence”. Besides, the “translocation of PKCα from cytoplasm to plasma membrane” value in assay [8] (TPA 100 ng/mL, bryostatin-1 5 pg/mL, PEP003 2.25 μg/mL (5 μM)) was “translocated from the cytoplasm to the plasma membrane”.
